Measured values published in patent publication US8648068B2, “Heterocycloalkyl-containing thienopyrimidines for pharmaceutical compositions” (Boehringer Ingelheim International GmbH, priority 2010, dated 2014).

Molecular target: T1, human Mnk2a (Homo sapiens, UniProt Q9HBH9)
T1 construct: made in house; host or cells: E. coli BL21 (vector pGEX-4T1)
Assay: Mnk2a in vitro kinase assay (indirect fluorescence polarization)
Type: biochemical
Details: GST-Mnk2a pre-activated with ERK2, 20 μM ATP, 30 μM substrate peptide; read-out: MNK2 IC50
Experimental: Inhibitory potency of compounds against Mnk1, Mnk2a and other kinases was assessed with assays based on a format known to those skilled in the art as the indirect (competitive) fluorescence polarization. The assay detection system comprises a small fluorophore-labeled phospho-peptide (termed ligand) bound to a phospho-specific antibody. The product generated by the kinase reaction competes with the ligand for antibody binding. Based on the larger molecular volume of the bound ligand, which results in a lower rotation rate in solution, its emitted light has a higher degree of polarization than the one from the free ligand.
As a source of enzyme, human Mnk1 and human Mnk2a were expressed as GST fusion proteins in E. coli, purified to >80% homogeneity by glutathione affinity chromatography and activated in vitro with pre-activated ERK2. In brief, the open reading frames of human Mnk1 and Mnk2a were amplified from cDNA using the forward/reverse primer pairs
(utilized restriction sites underlined), respectively, and cloned into the BamHI and SalI sites of the vector pGEX-4T1 (Amersham, Sweden, cat. no. 27-4580-01). These constructs allow prokaryotic expression of Mnk1 or Mnk2a as fusion protein with a N-terminal glutathione S-transferase (GST) tag, referred to as GST-Mnk1 or GST-Mnk2a. The following expression and purification procedure was identical for GST-Mnk1 and GST-Mnk2a, referring in general to GST-Mnk, when not distinguishing between the two isoforms. Expression of GST-Mnk was in E. coli BL21 (Merck Biosciences, Germany, cat. no. 69449). Cells were grown in LB-Bouillon (Merck, Germany, cat. no. 1.10285) supplemented with 100 μg/ml ampicillin (Sigma, Germany, cat. no. A9518) at 37° C. When the culture had reached a density corresponding to an A600 of 0.8, an equal volume of ice cold LB/ampicillin was added, the culture transferred to 25° C. and induced for 4 h with 1 mM isopropyl thiogalactoside (IPTG, Roth, Germany, cat. no. 2316.4). Cells harvested by centrifugation were resuspended in 10 ml lysis buffer (50 mM tris(hydroxymethyl)aminomethane hydrochloride (Tris/HCl, Sigma, Germany, cat. no. T5941) pH 7.5, 300 mM sodium chloride (NaCl, Sigma, Germany, cat. no. S7653), 5% (w/v) glycerol (Sigma, Germany, cat. no. G5516), 3 mM DTT dithiotreitol (DTT, Sigma, Germany, cat. no. D9779)) per gram wet weight cell pellet. Lysates were prepared by disruption of cells with a sonifier and subsequent clearing by centrifugation at 38000 g for 45 min at 4° C.
The lysate was applied to a GSTPrep FF 16/10 column (Amersham, Sweden, cat. no. 17-5234-01) equilibrated with lysis buffer. Removal of unbound material was with 3 column volumes (CV) lysis buffer. Elution was with 2 CV of elution buffer (50 mM Tris/HCl pH 7.5, 300 mM NaCl, 5% (w/v) glycerol, 20 mM glutathione (Sigma, Germany, cat. no. G4251)). Peak fractions were pooled and the protein transferred into storage buffer (50 mM Tris/HCl pH 7.5, 200 mM NaCl, 0.1 mM ethylene glycol-bis(2-aminoethylether)-N,N,N′,N′-tetraacetic acid (EGTA, Aldrich, Germany, cat. no. 23, 453-2), 1 mM DTT, 10% (w/v) glycerol, 0.5 M sucrose (Sigma, Germany, cat. no. SO389) by gel filtration on a PD10 desalting column (Amersham, Sweden, cat. no. 17-0851-01). Aliquots were shock frozen in liquid nitrogen and stored at −80° C.
Activation of Mnk1 and Mnk2a was at a concentration of 2.5 μM of either purified GST-Mnk1 or GST-Mnk2a by incubation with 150 nM pre-activated NHis-ERK2 (see ERK2 assay for preparation) and 50 μM adenosine triphosphate (ATP, Sigma, cat. no. A2699) in a buffer comprising 20 mM N-(2-hydroxyethyl)piperazine-N′-(2-ethanesulfonic acid) (HEPES, Fluka, Germany, cat. no 54459)/potassium hydroxide (KOH, Roth, Germany, cat. no 6751.1) pH 7.4, 10 mM magnesium chloride (MgCl2, Sigma, Germany, cat. no. M2670), 0.25 mM DTT, 0.05% (w/v) polyoxyethylene 20 stearylether (Brij 78, Sigma, Germany, cat. no. P4019) (HMDB buffer) for 45 min at 30° C. […]

T1 sequence (Q9HBH9 whole entry): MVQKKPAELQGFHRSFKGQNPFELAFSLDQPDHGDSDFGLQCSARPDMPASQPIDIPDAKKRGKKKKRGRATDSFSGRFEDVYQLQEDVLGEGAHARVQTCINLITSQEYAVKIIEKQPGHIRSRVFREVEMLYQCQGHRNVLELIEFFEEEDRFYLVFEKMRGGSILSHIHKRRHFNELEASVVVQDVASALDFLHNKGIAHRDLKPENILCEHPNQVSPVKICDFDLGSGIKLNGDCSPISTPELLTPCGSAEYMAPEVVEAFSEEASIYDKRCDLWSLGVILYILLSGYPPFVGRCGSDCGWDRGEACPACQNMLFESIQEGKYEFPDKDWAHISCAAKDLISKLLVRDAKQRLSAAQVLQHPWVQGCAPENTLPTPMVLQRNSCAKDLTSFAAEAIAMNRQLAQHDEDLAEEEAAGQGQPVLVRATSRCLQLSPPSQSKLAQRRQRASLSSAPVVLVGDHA

SMILES	IC50 [nM]
Cc1c(C(=O)NCCCN(C)C)sc2ncnc(Nc3ccc(F)cc3O[C@@H]3CCCN(S(C)(=O)=O)C3)c12 [Example 85]	7
Cc1c(C(=O)NCCO)sc2ncnc(Nc3ccc(F)cc3O[C@@H]3CCCN(S(C)(=O)=O)C3)c12 [Example 86]	6
Cc1c(C(=O)NCCCN(C)C)sc2ncnc(Nc3ccc(F)cc3O[C@H]3CCCOC3)c12 [Example 87, 4-{4-Fluoro-2-[(S)-(tetrahydro-pyran-3-yl)oxy]-phenylamino}-5-methyl-thieno[2,3-d]pyrimidine-6-carboxylic acid (3-dimethylamino-propyl)-amide]	12
Cc1c(C(=O)NCCCN(C)C)sc2ncnc(Nc3ccc(F)cc3O[C@@H]3CCCOC3)c12 [Example 88, 4-{4-Fluoro-2-[(R)-(tetrahydro-pyran-3-yl)oxy]-phenylamino}-5-methyl-thieno[2,3-d]pyrimidine-6-carboxylic acid (3-dimethylamino-propyl)-amide]	22
Cc1c(C(N)=O)sc2ncnc(Nc3ccc(F)cc3OC3CCN(S(C)(=O)=O)C3)c12 (stereo not drawn) [Example 89, 4-[4-Fluoro-2-(1-methanesulfonyl-pyrrolidin-3-yloxy)-phenylamino]-5-methyl-thieno[2,3-d]pyrimidine-6-carboxylic acid amide]	8
CNC(=O)c1sc2ncnc(Nc3ccc(F)cc3OC3CCN(S(C)(=O)=O)C3)c2c1C (stereo not drawn) [Example 90]	14
Cc1c(C(=O)NC2CCN(C)CC2)sc2ncnc(Nc3ccc(F)cc3OC3CCN(S(C)(=O)=O)C3)c12 (stereo not drawn) [Example 91]	51
CONC(=O)c1sc2ncnc(Nc3ccc(F)cc3OC3CCN(S(C)(=O)=O)C3)c2c1C (stereo not drawn) [Example 92]	45
Cc1c(C(=O)NO)sc2ncnc(Nc3ccc(F)cc3OC3CCN(S(C)(=O)=O)C3)c12 (stereo not drawn) [Example 93]	19
COCC(=O)N1CCC(Oc2cc(F)ccc2Nc2ncnc3sc(C(N)=O)c(C)c23)C1 (stereo not drawn) [Example 94, 4-{4-Fluoro-2-[1-(2-methoxy-acetyl)-pyrrolidin-3-yloxy]-phenylamino}-5-methyl-thieno[2,3-d]pyrimidine-6-carboxylic acid amide]	300
Cc1c(C(N)=O)sc2ncnc(Nc3ccc(F)cc3OC3CCN(C(=O)CN(C)C)C3)c12 (stereo not drawn) [Example 95, 4-{2-[1-(2-Dimethylamino-acetyl)-pyrrolidin-3-yloxy]-4-fluoro-phenylamino}-5-methyl-thieno[2,3-d]pyrimidine-6-carboxylic acid amide]	460
CC(=O)N1CC[C@H](Oc2cc(F)ccc2Nc2ncnc3sc(C(N)=O)c(C)c23)C1 [Example 96, 4-[2-((S)-1-Acetyl-pyrrolidin-3-yloxy)-4-fluoro-phenylamino]-5-methyl-thieno[2,3-d]pyrimidine-6-carboxylic acid amide]	1100
CC(=O)N1CC[C@@H](Oc2cc(F)ccc2Nc2ncnc3sc(C(N)=O)c(C)c23)C1 [Example 98, 4-[2-((R)-1-Acetyl-pyrrolidin-3-yloxy)-4-fluoro-phenylamino]-5-methyl-thieno[2,3-d]pyrimidine-6-carboxylic acid amide]	94
Cc1c(C(N)=O)sc2ncnc(Nc3ccc(F)cc3O[C@@H]3CCN(S(C)(=O)=O)C3)c12 [Example 99, 4-[4-Fluoro-2-((R)-1-methanesulfonyl-pyrrolidin-3-yloxy)-phenylamino]-5-methyl-thieno[2,3-d]pyrimidine-6-carboxylic acid amide]	6
Cc1c(C(=O)NC#N)sc2ncnc(Nc3ccc(F)cc3O[C@@H]3CCOC3)c12 [Example 100, (R)—N-cyano-4-(4-fluoro-2-(tetrahydrofuran-3-yloxy)phenylamino)-5-methylthieno[2,3-d]pyrimidine-6-carboxamide]	5
Cc1c(C(=O)NS(C)(=O)=O)sc2ncnc(Nc3ccc(F)cc3O[C@@H]3CCOC3)c12 [Example 101, N-(4-{4-Fluoro-2-[(R)-(tetrahydro-furan-3-yl)oxy]-phenylamino}-5-methyl-thieno[2,3-d]pyrimidine-6-carbonyl)-methanesulfonamide]	11
CONC(=O)c1sc2ncnc(Nc3ccc(F)cc3O[C@@H]3CCOC3)c2c1C [Example 102, 4-{4-Fluoro-2-[(R)-(tetrahydro-furan-3-yl)oxy]-phenylamino}-5-methyl-thieno[2,3-d]pyrimidine-6-carboxylic acid methoxy-amide]	32
Cc1c(C(=O)NCCCN(C)C)sc2ncnc(Nc3ccc(F)cc3O[C@@H]3CCOC3)c12 [Example 103, 4-{4-Fluoro-2-[(R)-(tetrahydro-furan-3-yl)oxy]-phenylamino}-5-methyl-thieno[2,3-d]pyrimidine-6-carboxylic acid (3-dimethylamino-propyl)-amide]	26
Cc1c(C(N)=O)sc2ncnc(Nc3ccc(F)cc3O[C@@H]3CCOC3)c12 [Example 104]	12
Cc1c(C(=O)NCC2CN(C)CCO2)sc2ncnc(Nc3ccc(F)cc3O[C@@H]3CCOC3)c12 (stereo partly drawn) [Example 105]	20
Cc1c(C(=O)NCCCN2CCCC2)sc2ncnc(Nc3ccc(F)cc3O[C@@H]3CCOC3)c12 [Example 106]	25
Cc1c(C(=O)NC2CC2)sc2ncnc(Nc3ccc(F)cc3O[C@@H]3CCOC3)c12 [Example 107]	26
Cc1c(C(=O)NCCCN(C)C)sc2ncnc(Nc3ccc(F)cc3O[C@H]3CCOC3)c12 [Example 108, 4-{4-Fluoro-2-[(S)-(tetrahydro-furan-3-yl)oxy]-phenylamino}-5-methyl-thieno[2,3-d]pyrimidine-6-carboxylic acid (3-dimethylamino-propyl)-amide]	26
Cc1c(C(N)=O)sc2ncnc(Nc3ccc(F)cc3O[C@H]3CCOC3)c12 [Example 109]	9
Cc1c(C(=O)NCC2CN(C)CCO2)sc2ncnc(Nc3ccc(F)cc3O[C@H]3CCOC3)c12 (stereo partly drawn) [Example 110]	21
Cc1c(C(=O)NCCCN2CCCC2)sc2ncnc(Nc3ccc(F)cc3O[C@H]3CCOC3)c12 [Example 111]	22
Cc1c(C(=O)NC2CC2)sc2ncnc(Nc3ccc(F)cc3O[C@H]3CCOC3)c12 [Example 112]	21
Cc1c(C(N)=O)sc2ncnc(Nc3ccc(F)cc3O[C@H]3C[C@@H](CO)N(S(C)(=O)=O)C3)c12 [Example 113, 4-[4-Fluoro-2-((3S,5S)-5-hydroxymethyl-1-methanesulfonyl-pyrrolidin-3-yloxy)-phenylamino]-5-methyl-thieno[2,3-d]pyrimidine-6-carboxylic acid amide]	420
COC(=O)c1sc2ncnc(Nc3ccc(F)cc3O[C@H]3C[C@H]4COC(=O)N4C3)c2c1C [Example 114, 4-[4-Fluoro-2-((6S,7aS)-3-oxo-tetrahydro-pyrrolo[1,2-d]oxazol-6-yloxy)-phenylamino]-5-methyl-thieno[2,3-d]pyrimidine-6-carboxylic acid methyl ester]	550
Cc1c(C(N)=O)sc2ncnc(Nc3ccc(F)cc3O[C@@H]3CN[C@H](CO)C3)c12 [Example 115, 4-[4-Fluoro-2-((3S,5S)-5-hydroxymethyl-pyrrolidin-3-yloxy)-phenylamino]-5-methyl-thieno[2,3-d]pyrimidine-6-carboxylic acid amide]	100
